Results from patent US12338237B2, “Derivatives having 1,2,3,4-tetrahydronaphthalene moiety or pharmaceutically acceptable salt thereof and pharmaceutical compositions comprising the same” (YUHAN CORPORATION, priority 2019, dated 2025).
Read-outs that look alike come from different tables or passages of the source.

Experiments:
GM1 production = test: cells; type: cell-based
[1] = biological target: glucosylceramide synthase (GCS) (Homo sapiens (Human), UniProt Q16739); test: Evaluation of inhibitory activities against GCS (enzyme reaction with A549 cell lysate, NBD C6-ceramide, HPLC fluorescence); type: biochemical; details: GCS activity in A549 cell lysate, 37° C. for 90 minutes
Outline: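 Lysate of A549 cells in 50 mM HEPES pH 7.3 incubated with test compound and NBD C6-ceramide at 37 °C for 90 min; lipids extracted with chloroform/methanol and GlcCer and ceramide peaks quantified by HPLC fluorescence. Activity from GlcCer area fraction, normalised between DMSO and ibiglustat controls.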

Sequence of glucosylceramide synthase (GCS) (Q16739 whole entry, looked up): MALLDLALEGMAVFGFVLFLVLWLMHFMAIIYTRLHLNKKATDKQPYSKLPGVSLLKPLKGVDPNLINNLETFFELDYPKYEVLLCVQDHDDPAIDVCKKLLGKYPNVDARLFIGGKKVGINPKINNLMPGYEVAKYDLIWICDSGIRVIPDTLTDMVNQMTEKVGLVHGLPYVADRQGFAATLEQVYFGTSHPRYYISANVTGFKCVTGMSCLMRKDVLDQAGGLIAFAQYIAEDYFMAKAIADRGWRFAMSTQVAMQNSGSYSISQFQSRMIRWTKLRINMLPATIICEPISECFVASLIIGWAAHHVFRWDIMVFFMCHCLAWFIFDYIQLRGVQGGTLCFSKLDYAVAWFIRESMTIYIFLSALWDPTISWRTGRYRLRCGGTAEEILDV

Molecule | IC50 (GM1 production; Homo sapiens, Jurkat, 72 h) [nM] | IC50 [1] [nM] | IC50 (GM1 production; read-out: IC50) [nM]
CCCOc1c(C)cc(-c2cc3c(cc2OC)C(NC(=O)O[C@@H]2CN4CCC2CC4)C(C)(C)CC3)cc1C (stereo partly drawn) [Example 234, (S)-quinuclidin-3-yl (6-(3,5-dimethyl-4-propoxyphenyl)-7-methoxy-2,2-dimethyl-1,2,3,4-tetrahydronaphthalen-1-yl)carbamate] | 14.9 | 1.45 | –
CCCc1ccc(-c2cc3c(cc2OC)C(NC(=O)O[C@@H]2CN4CCC2CC4)C(C)(C)CC3)cc1 (stereo partly drawn) [Example 235, (S)-quinuclidin-3-yl (7-methoxy-2,2-dimethyl-6-(4-propylphenyl)-1,2,3,4-tetrahydronaphthalen-1-yl)carbamate] | 3.2 | 0.19 | –
COc1cc2c(cc1-c1ccc(CC(C)C)cc1)CCC(C)(C)C2NC(=O)O[C@@H]1CN2CCC1CC2 (stereo partly drawn) [Example 236, (S)-quinuclidin-3-yl (6-(4-isobutylphenyl)-7-methoxy-2,2-dimethyl-1,2,3,4-tetrahydronaphthalen-1-yl)carbamate] | 3.2 | 0.53 | –
COc1cc2c(cc1-c1ccnc(OC(C)(C)C)c1)CCC(C)(C)C2NC(=O)O[C@@H]1CN2CCC1CC2 (stereo partly drawn) [Example 237, (S)-quinuclidin-3-yl (6-(2-(tert-butoxy)pyridin-4-yl)-7-methoxy-2,2-dimethyl-1,2,3,4-tetrahydronaphthalen-1-yl)carbamate] | 18.8 | 1.84 | –
COc1cc2c(cc1-c1ccc(OC(C)C)cc1)CCC(C)(C)C2NC(=O)O[C@@H]1CN2CCC1CC2 (stereo partly drawn) [Example 238, (S)-quinuclidin-3-yl (6-(4-isopropoxyphenyl)-7-methoxy-2,2-dimethyl-1,2,3,4-tetrahydronaphthalen-1-yl)carbamate] | 3.5 | 0.55 | –
(S)-quinuclidin-3-yl (2,2-dimethyl-7-(2-(p-tolyl)-1,2,3,4-tetrahydronaphthalen-1-yl)carbamate [Example 163] | – | 15.3 | 55.1
(S)-quinuclidin-3-yl (7-(3-(chlorophenyl)-1,2,3,4-tetrahydronaphthalen-1-yl)carbamate [Example 59] | – | 18.9 | 153
